Experimental data: patent US12581252B2, “Substituted pyrrolo[3,4-b]pyridines as PI3K-α inhibitors” (Relay Therapeutics, Inc., priority 2020, dated 2026)

What follows are compounds tested against H1047R PIK3CA enzyme (Homo sapiens, UniProt P42336, H1047R) (assay: ADP-Glo Biochemical PIK3CA Kinase Assay).
Chain of H1047R PIK3CA enzyme (P42336 whole entry H1047R): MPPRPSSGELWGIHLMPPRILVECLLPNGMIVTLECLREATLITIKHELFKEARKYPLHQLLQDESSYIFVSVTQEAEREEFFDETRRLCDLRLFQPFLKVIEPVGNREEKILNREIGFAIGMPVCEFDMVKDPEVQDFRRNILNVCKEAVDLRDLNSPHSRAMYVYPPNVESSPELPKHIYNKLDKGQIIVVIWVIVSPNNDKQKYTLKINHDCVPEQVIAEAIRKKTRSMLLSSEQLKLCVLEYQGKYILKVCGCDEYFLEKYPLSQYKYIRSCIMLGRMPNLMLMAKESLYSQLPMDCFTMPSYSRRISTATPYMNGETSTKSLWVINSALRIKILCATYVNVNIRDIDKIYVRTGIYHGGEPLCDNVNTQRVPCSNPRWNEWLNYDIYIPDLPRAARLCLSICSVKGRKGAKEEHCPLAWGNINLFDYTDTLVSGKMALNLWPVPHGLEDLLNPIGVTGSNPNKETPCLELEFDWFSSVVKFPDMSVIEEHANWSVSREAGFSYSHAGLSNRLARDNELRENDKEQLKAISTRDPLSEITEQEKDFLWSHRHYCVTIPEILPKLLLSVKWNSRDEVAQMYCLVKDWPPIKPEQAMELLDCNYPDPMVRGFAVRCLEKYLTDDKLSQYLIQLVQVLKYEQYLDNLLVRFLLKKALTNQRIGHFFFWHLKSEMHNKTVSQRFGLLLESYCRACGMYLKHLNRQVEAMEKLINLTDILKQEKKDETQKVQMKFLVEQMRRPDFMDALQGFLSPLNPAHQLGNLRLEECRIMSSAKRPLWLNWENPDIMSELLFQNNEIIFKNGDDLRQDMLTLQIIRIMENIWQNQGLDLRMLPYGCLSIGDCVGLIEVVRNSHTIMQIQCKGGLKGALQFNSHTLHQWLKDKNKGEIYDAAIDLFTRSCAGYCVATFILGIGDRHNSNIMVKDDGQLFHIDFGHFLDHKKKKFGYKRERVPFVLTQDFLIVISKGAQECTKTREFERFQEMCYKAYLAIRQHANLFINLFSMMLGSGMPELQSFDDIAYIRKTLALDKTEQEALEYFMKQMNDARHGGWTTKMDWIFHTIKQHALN
Chain of H1047R PIK3CA enzyme (P27986 whole entry partner): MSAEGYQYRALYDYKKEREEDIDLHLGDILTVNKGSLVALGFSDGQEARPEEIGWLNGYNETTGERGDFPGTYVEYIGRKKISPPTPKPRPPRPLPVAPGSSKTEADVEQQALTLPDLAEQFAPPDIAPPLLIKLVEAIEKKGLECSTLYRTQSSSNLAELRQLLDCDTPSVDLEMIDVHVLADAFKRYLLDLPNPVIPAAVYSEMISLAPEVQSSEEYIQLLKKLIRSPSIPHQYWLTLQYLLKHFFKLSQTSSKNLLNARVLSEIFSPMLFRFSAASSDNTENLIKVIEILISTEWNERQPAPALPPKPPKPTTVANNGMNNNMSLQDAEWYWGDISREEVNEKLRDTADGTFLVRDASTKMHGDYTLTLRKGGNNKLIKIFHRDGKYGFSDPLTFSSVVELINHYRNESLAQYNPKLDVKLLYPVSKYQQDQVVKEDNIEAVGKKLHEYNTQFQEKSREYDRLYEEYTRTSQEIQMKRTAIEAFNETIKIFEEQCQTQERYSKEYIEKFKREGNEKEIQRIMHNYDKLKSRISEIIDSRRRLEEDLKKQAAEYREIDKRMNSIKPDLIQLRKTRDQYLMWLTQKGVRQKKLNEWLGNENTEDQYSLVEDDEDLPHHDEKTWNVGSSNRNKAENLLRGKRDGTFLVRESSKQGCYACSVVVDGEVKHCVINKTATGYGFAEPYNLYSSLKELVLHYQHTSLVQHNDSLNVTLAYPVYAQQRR

SMILES	IC50 [µM]
CN1CCCC[C@@H]1[C@@H]1NC(=O)c2cccc(NC(=O)c3cc(F)cc(C(F)(F)F)c3)c21 (racemic) [Compound I-1713]	10 to 100
CC1(c2ccccc2)NC(=O)c2cccc(NC(=O)c3csc4ccccc34)c21 (stereo not shown) [Compound I-130]	10 to 100
O=C1NC(c2cc(F)ccc2Cl)c2c1cc(-c1ccc3ncnn3c1)cc2N1C(=O)CCC1=O (stereo not shown) [Compound I-1990]	10 to 100
O=C(Nc1cccc2c1C(C1CCCC(O)C1)NC2=O)c1cc(F)cc(C(F)(F)F)c1 (mixture of isomers) [Compound I-2224]	10 to 100
Cc1ccccc1C1NC(=O)c2cccc(NC(=O)c3noc4ccc(F)cc34)c21 (stereo not shown) [Compound I-21]	1 to 10
O=C1N[C@H](c2cc(F)ccc2Cl)c2c(NC(=O)[C@H]3C[C@H]3C(F)(F)F)cc(Br)cc21 (racemic) [Compound I-1854]	10 to 100
O=C(Nc1cccc2c1C(c1cc(F)ccc1Cl)NC2=O)c1csc2c1CCOC2 (stereo not shown) [Compound I-2266]	0.1 to 0.5
Nc1cc(NC(=O)N2C[C@H](O)c3cc(F)ccc32)c2c(c1)C(=O)N[C@@H]2c1cc(F)ccc1Cl (single isomer, unassigned) [Compound I-2412]	1 to 10
O=C1NC(c2cc(F)ccc2Cl)c2c(NC(=O)C34C5C6C7C5C3C7C64)cc(Br)cc21 (stereo not shown) [Compound I-1182]	1 to 10
CC(C)C1CCCN1C(=O)Nc1cccc2c1C(c1cc(F)ccc1Cl)NC2=O (mixture of isomers) [Compound I-2396]	1 to 10
CC(=O)Nc1cc(NC(=O)c2cc(F)cc(C(F)(F)F)c2)c2c(c1)C(=O)N[C@@H]2c1cc(F)ccc1Cl [Compound I-462]	1 to 10
Cc1ccccc1[C@H]1NC(=O)c2c(C(N)=O)ccc(NC(=O)c3cc(F)cc(C(F)(F)F)c3)c21 [Compound I-509]	0.1 to 0.5
Cc1ccccc1C1c2c(NC(=O)c3csc4ccccc34)cccc2C(=O)N1C (stereo not shown) [Compound I-82]	10 to 100
CN1C[C@@H](COc2cc(NC(=O)c3cc(F)cc(C(F)(F)F)c3)c3c(c2)C(=O)N[C@H]3c2cc(F)ccc2Cl)CC1=O (single isomer, unassigned) [Compound I-1524]	10 to 100
O=C1NC(c2cc(F)ccc2Cl)c2c(NC(=O)N3CC4CC(F)(C4)C3)cc(Br)cc21 (stereo not shown) [Compound I-1753]	10 to 100
O=C(Nc1ccnc2c1C(c1ccccc1Cl)NC2=O)c1ccnc2c1CCC2 (stereo not shown) [Compound I-240]	10 to 100
C[C@H](CCC(F)(F)F)C(=O)Nc1cccc2c1[C@@H](c1cc(F)ccc1Cl)NC2=O [Compound I-2140]	10 to 100
CN1CCN=C1Nc1cc(NC(=O)c2cc(F)cc(C(F)(F)F)c2)c2c(c1)C(=O)NC2c1cc(F)ccc1Cl (stereo not shown) [Compound I-2298]	0.1 to 0.5
O=C1N[C@H](c2cc(F)ccc2Cl)c2c(N[C@H]3CCOc4ccccc43)cc(-c3cnn(C(F)F)c3)nc21 (single isomer, unassigned) [Compound I-2159]	1 to 10
Nc1ncc(-c2cc(NC(=O)c3cc(F)cc(C(F)(F)F)c3)c3c(c2)C(=O)N[C@H]3c2cc(F)ccc2Cl)cn1 (stereo in doubt) [Compound I-1004]	1 to 10
Cc1cc(=O)[nH]cc1C(=O)Nc1cc(Br)cc2c1[C@@H](c1cc(F)ccc1Cl)NC2=O [Compound I-2107]	10 to 100

SMILES	IC50 [µM]
O=C(Nc1cc(Br)cc2c1C(c1cc(F)ccc1Cl)NC2=O)c1cc(F)ccc1C(F)F (stereo not shown) [Compound I-837]	1 to 10
COCc1cc2c(c(N(C)C(=O)c3nsc4ccccc34)c1)C(c1ccccc1C)NC2=O (stereo not shown) [Compound I-134, N-(6-(Methoxymethyl)-1-oxo-3-(o-tolyl)isoindolin-4-yl)-N-methylbenzo[d]isothiazole-3-carboxamide]	10 to 100
O=C(Nc1cnc(N2CC(F)(F)C2)c2c1C(Cl)(c1cc(F)ccc1Cl)NC2=O)c1cc(F)cc(C(F)(F)F)c1 (stereo not shown) [Compound I-274, N-(1-Chloro-1-(2-chloro-5-fluorophenyl)-4-(3,3-difluoroazetidin-1-yl)-3-oxo-2,3-dihydro-1H-pyrrolo[3,4-c]pyridin-7-yl)-3-fluoro-5-(trifluoromethyl)benzamide]	1 to 10
O=C(Nc1ccccc1)Nc1cc(Br)cc2c1[C@@H](c1cc(F)ccc1Cl)NC2=O (stereo in doubt) [Compound I-1946]	1 to 10
Cc1ccccc1C1NC(=O)c2nccc(NC(=O)N3CCc4cnccc43)c21 (stereo not shown) [Compound I-248]	10 to 100
O=C1N[C@H](c2cc(F)ccc2Cl)c2c(NC(=O)[C@H]3C[C@@H](O)C[C@@H](C(F)(F)F)C3)cc(Br)cc21 (single isomer, unassigned) [Compound I-2272]	10 to 100
O=C1NC(c2cc(F)ccc2Cl)c2c(NC3CCc4ccccc43)cc(Br)cc21 (stereo not shown) [Compound I-1852]	10 to 100
Cc1ccc(C(=O)Nc2cc(Br)cc3c2C(c2cc(F)ccc2Cl)NC3=O)cc1 (stereo not shown) [Compound I-519]	10 to 100
O=C(Nc1cccc2c1C(c1nc(C(F)(F)F)cs1)NC2=O)c1cc(F)cc(C(F)(F)F)c1 (stereo not shown) [Compound I-2330]	10 to 100
Cc1ccccc1C1NC(=O)c2cccc(NC(=O)c3cccc(F)c3)c21 (stereo not shown) [Compound I-475]	1 to 10
CC(=O)N[C@H]1CC[C@H](C(=O)Nc2cc(-c3ccc4ncnn4c3)cc3c2C(c2cc(F)ccc2Cl)NC3=O)CC1 (mixture of isomers) [Compound I-1850]	10 to 100
O=C(Nc1cc(-c2ccc3ncnn3c2)nc2c1C(C1CCCC1)NC2=O)c1cc(F)cc(C(F)(F)F)c1 (stereo not shown) [Compound I-1654]	10 to 100
CS(=O)(=O)N1CCC[C@H](Oc2cc(NC(=O)c3cc(F)cc(C(F)(F)F)c3)c3c(c2)C(=O)NC3c2cc(F)ccc2Cl)C1 (mixture of isomers) [Compound I-1526]	0.1 to 0.5
O=C1NC(c2cc(F)ccc2Cl)c2c(Nc3c[nH]c4ccccc34)cc(Br)cc21 (stereo not shown) [Compound I-1896]	10 to 100
O=C(Nc1cccc2c1[C@H](C1CCCC[C@@H]1O)NC2=O)c1cc(F)cc(C(F)(F)F)c1 (single isomer, unassigned) [Compound I-2110]	10 to 100
CN1CCC=C(c2cc(-c3ccc4ncnn4c3)cc3c2C(c2cc(F)ccc2Cl)NC3=O)C1 (stereo not shown) [Compound I-2020]	10 to 100
O=C(Nc1cccc2c1C([C@H]1CCCC[C@@H]1O)NC2=O)c1cc(F)cc(C(F)(F)F)c1 (single isomer, unassigned) [Compound I-1972]	10 to 100
Cc1ncc(-c2cc(NC(=O)c3cc(F)cc(C(F)(F)F)c3)c3c(c2)C(=O)N[C@@H]3c2cc(F)ccc2Cl)cn1 [Compound I-783]	1 to 10
O=C(Nc1cc(Cn2cccn2)cc2c1C(c1cc(F)ccc1Cl)NC2=O)c1cc(F)cc(C(F)(F)F)c1 (stereo not shown) [Compound I-1497]	≤ 0.1
Cc1cc(=O)[nH]cc1C(=O)Nc1cc(Br)cc2c1[C@H](c1cc(F)ccc1Cl)NC2=O [Compound I-2108]	10 to 100
O=C(Nc1cc(-c2ccc3ncnn3c2)cc2c1[C@@H](c1cc(F)ccc1Cl)NC2=O)c1ccc(F)c(OC(F)(F)F)c1 (stereo in doubt) [Compound I-1108]	1 to 10

Continued, values first:

IC50 [µM]	SMILES
≤ 0.1	O=C1NC(c2cc(F)ccc2C(F)F)c2c(NC(=O)c3nsc4ccccc34)cccc21 (stereo not shown) [Compound I-137]
≤ 0.1	N#Cc1cc(-c2cc(NC(=O)c3cc(F)cc(C(F)(F)F)c3)c3c(c2)C(=O)N[C@H]3c2cc(F)ccc2Cl)cn2ncnc12 [Compound I-1882]
≤ 0.1	O=C(Nc1cc(-c2ccc3c(c2)OCCCO3)cc2c1C(c1cc(F)ccc1Cl)NC2=O)c1cc(F)cc(C(F)(F)F)c1 (stereo not shown) [Compound I-851]
≤ 0.1	CS(=O)(=O)Cc1cc(NC(=O)c2cc(F)cc(C(F)(F)F)c2)c2c(c1)C(=O)N[C@H]2c1cc(F)ccc1Cl [Compound I-618]
≤ 0.1	O=C1CCC(c2cc(NC(=O)c3cc(F)cc(C(F)(F)F)c3)c3c(c2)C(=O)NC3c2cc(F)ccc2Cl)N1 (stereo not shown) [Compound I-861]
≤ 0.1	O=C(Nc1cc(-c2ccc3ncc(F)n3c2)cc2c1[C@H](c1cc(F)ccc1Cl)NC2=O)c1cc(F)cc(C(F)(F)F)c1 [Compound I-1870]
≤ 0.1	N#CC1(n2cc(-c3cc(NC(=O)c4cc(F)cc(C(F)(F)F)c4)c4c(c3)C(=O)NC4c3cc(F)ccc3Cl)cn2)CC1 (stereo not shown) [Compound I-1800]
≤ 0.1	NS(=O)(=O)Cc1cc(NC(=O)c2cc(F)cc(C(F)(F)F)c2)c2c(c1)C(=O)NC2c1cc(F)ccc1Cl (stereo not shown) [Compound I-1367]
≤ 0.1	O=C1NC(c2cc(F)ccc2Cl)c2c(NC(=O)c3cc(F)cc4cc[nH]c34)cccc21 (stereo not shown) [Compound I-646]
≤ 0.1	Cc1ccccc1C1NC(=O)c2cc(C(O)CO)cc(NC(=O)c3csc4ccccc34)c21 (mixture of isomers) [Compound I-139, N-[6-(1,2-Dihydroxyethyl)-3-(2-methylphenyl)-1-oxo-2,3-dihydro-1H-isoindol-4-yl]-1-benzothiophene-3-carboxamide]
≤ 0.1	CS(=O)(Cc1cc(NC(=O)c2cc(F)cc(C(F)(F)F)c2)c2c(c1)C(=O)NC2c1cc(F)ccc1Cl)=NC#N (stereo not shown) [Compound I-1312]
≤ 0.1	O=C(Nc1cc(-c2ccc3nnc(C(F)F)n3c2)cc2c1C(c1cc(F)ccc1Cl)NC2=O)c1cc(F)cc(C(F)(F)F)c1 (stereo not shown) [Compound I-1840]
≤ 0.1	O=C(Nc1cc(-c2cn3ncnc3cc2F)cc2c1[C@H](c1cc(F)ccc1Cl)NC2=O)c1cc(F)cc(C(F)(F)F)c1 (stereo in doubt) [Compound I-1702]
≤ 0.1	O=C(Nc1cc(-c2ccc3ncnn3c2)cc2c1[C@H](c1cc(F)ccc1Cl)NC2=O)c1cc(F)cc(Cl)c1 (stereo in doubt) [Compound I-1165]
≤ 0.1	COc1cnccc1-c1cc(NC(=O)c2cc(F)cc(C(F)(F)F)c2)c2c(c1)C(=O)NC2c1cc(F)ccc1Cl (stereo not shown) [Compound I-1219]
≤ 0.1	CS(=O)(=O)c1ccc(-c2cc(NC(=O)c3cc(F)cc(C(F)(F)F)c3)c3c(c2)C(=O)NC3c2cc(F)ccc2Cl)cn1 (stereo not shown) [Compound I-1455]
≤ 0.1	O=C1NC(c2cc(F)ccc2Cl)c2c(NC(=O)c3cc(F)cc4cc[nH]c34)cc(Br)cc21 (stereo not shown) [Compound I-711]
≤ 0.1	O=C(Nc1cc(-c2ncc[nH]2)cc2c1C(c1cc(F)ccc1Cl)NC2=O)c1cc(F)cc(C(F)(F)F)c1 (stereo not shown) [Compound I-712]
≤ 0.1	Cc1ccccc1C1NC(=O)c2c(C(=O)NCC(F)F)ccc(NC(=O)c3nsc4ccccc34)c21 (stereo not shown) [Compound I-276]
